Measurements: US20150274664A1 (MERCK SHARP & DOHME CORP., priority 2012, published 2015)

target: T1, human SNP variant (S309L) of GPR119 (Homo sapiens, UniProt Q8TDV5, S309L); experiment: GPR119 signaling, cAMP homogenous time resolved fluorescence (HTRF) assay; type: cell-based; details: HEK293 Flp-In cells stably transfected with human GPR119 (S309L), HTRF kit
T1 construct: expressed in transfected cells; host or cells: HEK293 Flp-In (Invitrogen)
T1 sequence (Q8TDV5 1-335 S309L): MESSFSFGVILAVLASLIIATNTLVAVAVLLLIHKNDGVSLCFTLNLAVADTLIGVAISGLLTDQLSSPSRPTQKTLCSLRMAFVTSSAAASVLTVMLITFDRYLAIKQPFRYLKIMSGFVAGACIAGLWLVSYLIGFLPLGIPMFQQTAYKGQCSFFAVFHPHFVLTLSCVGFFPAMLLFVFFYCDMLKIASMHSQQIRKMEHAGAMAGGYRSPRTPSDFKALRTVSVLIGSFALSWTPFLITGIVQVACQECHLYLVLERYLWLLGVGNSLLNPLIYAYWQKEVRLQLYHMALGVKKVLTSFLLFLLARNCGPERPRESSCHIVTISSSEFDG
Source text: Measurement of GPR119 Signaling Using a Cyclic AMP (cAMP) Homogenous Time Resolved Fluorescence (HTRF) Assay
Chinese hamster ovary (CHO) cell lines stably transfected with the permissive guanine nucleotide binding protein alpha 15 (Gals) and murine GPR119 were maintained in DMEM media containing FBS, penicillin-streptomycin, puromycin, and G418 (geneticin). Alternatively, human embryonic kidney (HEK)293 Flp-In cells (Invitrogen, Carlsbad, Calif.) were stably transfected with a human SNP variant (S309L) of GPR119 and maintained in DMEM media containing FBS, penicillin-streptomycin, and hygromycin. Agonist activation of the GPR119 receptor was measured in receptor transfected cells described above, treated with compounds of this invention, using a commercial homogenous time resolved fluorescence (HTRF) kit for measurement of cAMP (CisBio, Bedford, Mass.). The assay was performed in 96-well half-volume plates (murine) or 384-well plates (human) following the manufacturers instructions. Briefly, suspended cells were incubated with a dose titration of test compound at RT for 60 min, lysed, and incubated with HTRF reagents for an additional 60 min. The plate was read using an Envision multilabel reader (Perkin Elmer) adjusted to read time resolved fluorescence and the cAMP concentrations were extrapolated from a cAMP calibration curve. […] The concentration of test compound required to stimulate a half-maximal response (EC50), and efficacy as compared to an internal agonist control, was determined from a sigmoidal 4-parameter curve fit of the resulting plot of normalized activity versus compound concentration.

EC50 [nM] | SMILES
1 | CS(=O)(=O)c1ccc(COC[C@H]2C[C@@H]2C2CCN(c3ncc(Cl)cn3)CC2)cc1F [Example 5, 5-chloro-2-(4-((1R,2S)-2-(((3-fluoro-4-(methylsulfonyl)benzyl)oxy)methyl)cyclopropyl)piperidin-1-yl)pyrimidine]
7.1 | Cc1cnc(N2CCC([C@H]3C[C@@H]3COCc3ccc(S(C)(=O)=O)cc3)CC2)nc1 [Example 6, 5-methyl-2-(4-((1R,2S)-2-(((4-(methylsulfonyl)benzyl)oxy)methyl)cyclopropyl)piperidin-1-yl)pyrimidine]
5.8 | CCS(=O)(=O)c1ccc(COC[C@H]2C[C@@H]2C2CCN(c3ncc(C)cn3)CC2)cc1 [Example 7, 2-(4-((1R,2S)-2-(((4-(ethylsulfonyl)benzyl)oxy)methyl)cyclopropyl)piperidin-1-yl)-5-methylpyrimidine]
1.9 | CCc1cnc(N2CCC([C@H]3C[C@@H]3COCc3ccc(S(C)(=O)=O)cc3)CC2)nc1 [Example 10, 5-ethyl-2-(4-((1R,2S)-2-(((4-(methylsulfonyl)benzyl)oxy)methyl)cyclopropyl)piperidin-1-yl)pyrimidine]
2.4 | CS(=O)(=O)c1ccc(COC[C@H]2C[C@@H]2C2CCN(C(=O)OC3CC3)CC2)cc1F [Example 15, cyclopropyl 4-((1R,2S)-2-(((3-fluoro-4-(methylsulfonyl)benzyl)oxy)methyl)cyclopropyl)piperidine-1-carboxylate]
5.7 | CS(=O)(=O)c1ccc(COC[C@H]2C[C@@H]2C2CCN(C(=O)OC3CC3)CC2)cc1 [Example 16, cyclopropyl 4-((1R,2S)-2-(((4-(methylsulfonyl)benzyl)oxy)methyl)cyclopropyl)piperidine-1-carboxylate]
4.6 | CC1(OC(=O)N2CCC([C@H]3C[C@@H]3COCc3ccc(S(C)(=O)=O)c(F)c3)CC2)CC1 [Example 17, 1-methylcyclopropyl 4-((1R,2S)-2-(((3-fluoro-4-(methylsulfonyl)benzyl)oxy)methyl)cyclopropyl)piperidine-1-carboxylate]
6.4 | CC1(OC(=O)N2CCC([C@H]3C[C@@H]3COCc3ccc(S(C)(=O)=O)cc3)CC2)CC1 [Example 18, 1-methylcyclopropyl 4-((1R,2S)-2-(((4-(methylsulfonyl)benzyl)oxy)methyl)cyclopropyl)piperidine-1-carboxylate]
9.1 | CC(C)OC(=O)N1CCC([C@H]2C[C@@H]2COCc2ccc(S(C)(=O)=O)cc2)CC1 [Example 19, isopropyl 4-((1R,2S)-2-(((4-(methylsulfonyl)benzyl)oxy)methyl)cyclopropyl)piperidine-1-carboxylate]
5.8 | CC(C)OC(=O)N1CCC([C@H]2C[C@@H]2COCc2ccc(S(C)(=O)=O)c(F)c2)CC1 [Example 20, isopropyl 4-((1R,2S)-2-(((3-fluoro-4-(methylsulfonyl)benzyl)oxy)methyl)cyclopropyl)piperidine-1-carboxylate]
3.8 | CC(C)c1noc(N2CCC([C@H]3C[C@@H]3COCc3ccc(S(C)(=O)=O)cc3)CC2)n1 [Example 21, 3-isopropyl-5-(4-((1R,2S)-2-((4-(methylsulfonyl)benzyloxy)methyl)cyclopropyl)piperidin-1-yl)-1,2,4-oxadiazole]
3.2 | CC(C)c1noc(N2CCC([C@H]3C[C@@H]3COCc3ccc(S(C)(=O)=O)c(F)c3)CC2)n1 [Example 22, 5-(4-((1R,2S)-2-(((3-fluoro-4-(methylsulfonyl)benzyl)oxy)methyl)cyclopropyl)piperidin-1-yl)-3-isopropyl-1,2,4-oxadiazole]
8.4 | Cc1nnc(-c2ccc(OCC[C@@H]3C[C@H]3C3CCN(c4ncc(Cl)cn4)CC3)cc2F)o1 [Example 64, 2-(4-(2-((1S,2S)-2-(1-(5-chloropyrimidin-2-yl)piperidin-4-yl)cyclopropyl)ethoxy)-2-fluorophenyl)-5-methyl-1,3,4-oxadiazole]
6.1 | CS(=O)(=O)c1ccc(OCC[C@@H]2C[C@H]2C2CCN(c3nc(C4CC4)no3)CC2)nc1 [Example 112, 3-cyclopropyl-5-(4-((1S,2S)-2-(2-((5-(methylsulfonyl)pyridin-2-yl)oxy)ethyl)cyclopropyl)piperidin-1-yl)-1,2,4-oxadiazole]
7.9 | CCCc1noc(N2CCC([C@@H]3C[C@H]3CCOc3ccc(S(C)(=O)=O)cn3)CC2)n1 [Example 113, 5-(4-((1S,2S)-2-(2-((5-(methylsulfonyl)pyridin-2-yl)oxy)ethyl)cyclopropyl)piperidin-1-yl)-3-propyl-1,2,4-oxadiazole]
4.8 | CS(=O)(=O)c1ccc(OCC[C@@H]2C[C@H]2C2CCN(c3nc(C4CCC4)no3)CC2)nc1 [Example 114, 3-cyclobutyl-5-(4-((1S,2S)-2-(2-((5-(methylsulfonyl)pyridin-2-yl)oxy)ethyl)cyclopropyl)piperidin-1-yl)-1,2,4-oxadiazole]
5.2 | COCc1cnc(N2CCC([C@H]3C[C@@H]3CCNc3ncc(-n4cnnn4)cn3)CC2)nc1 [Example 124, N-(2-((1R,2S)-2-(1-(5-(methoxymethyl)pyrimidin-2-yl)piperidin-4-yl)cyclopropyl)ethyl)-5-(1H-tetrazol-1-yl)pyrimidin-2-amine]
3 | CS(=O)(=O)c1ccc(OCC[C@@]2(C#N)C[C@@H]2C2CCN(c3ncc(Cl)cn3)CC2)cc1 [Example 127, (1S,2R)-2-(1-(5-chloropyrimidin-2-yl)piperidin-4-yl)-1-(2-(4-(methylsulfonyl)phenoxy)ethyl)cyclopropanecarbonitrile]
6.7 | CS(=O)(=O)c1ccc(NCC[C@H]2C[C@@H]2C2CCN(c3ncc(Cl)cn3)CC2)cc1 [Example 128, N-(2-((1R,2S)-2-(1-(5-chloropyrimidin-2-yl)piperidin-4-yl)cyclopropyl)ethyl)-4-(methylsulfonyl)aniline]
